How the values were obtained:
[1] = system: WT, HET and KI R217A mice and parent strains; test: Vogel water-lick conflict; format: in vivo, mouse; conditions: for minimally effective dose (MED), Vogel: IP (doses tested in mg/kg)
Method: Two strains used to generate the mutant mice, C57BU6J (Jackson Laboratories), and 129S6/SvEV (Taconic Farms), were also evaluated. Albino or C57BL/6J-Tyr were also included in the experiments for comparison purposes. Male C57BL/6J (Jackson Laboratories), and 129S6/SvEV (Taconic Farms) mice were received at 8 weeks old in quantities sufficient for each study to be completed in one experiment. Parent strains were housed one week prior to testing. All animals were housed in a temperature and humidity controlled room under a 12L: 12D schedule (lights on @06:00 h). All mice were housed in isolators (3-5/cage) with the exception of C57BU6J mice that were housed on wire racks (12/cage).
On the side of each chamber (1.5 in. above the floor) a module optical lickometer was mounted. The lickometer was used to measure licking from a drink tube attached to a water bottle mounted on the exterior of the chamber. A photo beam was piped via glass rods across a gap at the end of the drink tube. The subject's tongue breaks the beam when it drinks from the tube and each lick was automatically recorded. […] The reduced chamber space limited the animal's activity and directed behavior towards the drink tube during a 10-minute session. The front and back of the test chamber was made of clear Plexiglas. The front door was covered to reduce distractions from inside the test room. The back of the test chamber faced a wall, away from the flow of traffic in the testing room, and remained uncovered to provide the opportunity for observations. Shock was delivered between the grid floor and the drink tube using a (Coulbourn) programmable universal shocker for a duration of one second, but terminated immediately when contact between the animal and drink tube was broken.
PROCEDURE: On day one, after 24 hours of water deprivation, experimental subjects were placed in the test chambers and allowed to drink unpunished for a 10-minute training session. Mice were required to complete a 100-150 lick criteria during the training session. Subjects that completed the training criteria prior to the end of the 10-minute session were removed so that drinking was restricted in all subjects to 25% of their total daily intake. […] Immediately after the day one session mice were returned to their home cages and deprived of water and food for an additional 24 hours. On test day two, mice were dosed by intraperitoneal (IP) injection with vehicle or test compound. After a 60 or 120-minute absorption period mice were placed into the test chambers for a 10-minute test session. During the test, shock was delivered on a fixed ratio (FR) 10 schedule. Therefore, after every 10th lick the subject received a mild shock. […] A low number of shock episodes accepted reflects anxiety-related behavior. Standard anxiolytic drugs produce effects that allow mice to overcome the behavioral inhibition and drink despite the shock. […] All data were analyzed using a one-way ANOVA/Dunn's Method.
DRUGS: Pregabalin was dissolved in physiological saline for all experiments. The positive control diazepam was suspended in 2% cremophor in physiological saline. All drugs were dosed in a volume of 10 mL/kg.
C57BL/6J mice were tested at 0.4 mA, C57BL/6J-Tyr mice were tested at 0.1 mA and 129S6/SvEV mice were tested at 0.6 mA. Each dose-response study included a no-shock vehicle control group directly compared to the concurrent vehicle punished-responding group to evaluate the suppression of drinking. […] For all experiments, sedation was noted when both symptoms of ataxia (unsteady gait) and a reduced response to handling were observed after dosing and described as mild, moderate or severe.
WT mice were tested at 0.1 mA, HET mice were tested at 0.4 mA and KI mice were tested at 0.7 InA. Each experiment included a no-shock vehicle control group for direct comparison to the concurrent vehicle punished-responding group to determine percent suppression of drinking.

[2] = system: R217A mutant lines and background strain mice; test: Maximal electroshock procedure (MES); format: in vivo, mouse; conditions: all background strains, mutant, heterozygous mutant and wildtype (all lines); FIG. 9
Method: WT mice were tested at 0.1 mA, HET mice were tested at 0.4 mA and KI mice were tested at 0.7 InA. Each experiment included a no-shock vehicle control group for direct comparison to the concurrent vehicle punished-responding group to determine percent suppression of drinking. […] Sedation was noted by the observer as previously described. […] Electroshock in mice was delivered using corneal electrodes with varied electroshock intensity. Current was delivered (60 Hz sinusoidal current, 11 to 17 mA baseline to peak vs. 50 mA for 0.2 s) using a constant-current stimulator (Wahlquist Instruments, Salt Lake City, Utah). The intensities of current necessary to produce tonic extensor seizures for each mouse strain and mutant lines in all of the mice were determined. These currents were then used for further testing of mice with pregabalin. All dose-response testing was conducted at the previously determined time of peak drug effect. Groups of 10 mice each were give various intraperitoneal doses of pregabalin dissolved in 0.9% saline, diazepam (veh) or phenytoin and given in a volume of 10 ml/kg of body weight. […] At least four groups of mice and each animal was employed once. The animals, pretreated with different doses of the tested drugs, were challenged with one electroshock at previously determined times of peak drug effect (pregabalin: 120 min; diazepam: 60 min; phenytoin; 60 min)

[3] = system: α2/δ1 in mouse brain membranes; test: 3H gabapentin binding to whole mouse brain membranes, R217A mutant vs wildtype; conditions: R217A mutant mouse in comparison to wildtype mice; tracer 3H gabapentin; FIG. 3
Method: Membranes were prepared from whole mouse brains. […] Total binding was determined in the absence of competitor. Non-specific binding was determined in the presence of 10 μM unlabeled pregabalin.

SMILES | minimally effective dose (MED), Vogel ([1]; 129S6/SvEv, shock 0.6 mA) | minimally effective dose (MED), Vogel ([1]; C57BL/6J, shock 0.4 mA) | minimally effective dose (MED), Vogel ([1]; C57 albino, shock 0.1 mA) | minimally effective dose (MED), Vogel ([1]; Hets, shock 0.4 mA) | minimally effective dose (MED), Vogel ([1]; Knockins, shock 0.7 mA) | anxiolytic-like effect / punished licking, Vogel ([1]; R217A knockins (homozygous)) | minimally effective dose (MED), Vogel ([1]; Wild Type, shock 0.1 mA) | responsiveness to anticonvulsant effects [2] | gabapentin binding to brain membranes [3]
CN1C(=O)CN=C(c2ccccc2)c2cc(Cl)ccc21 [diazepam] | inactive | 3.2 | 3.2 | 3.2 | inactive | Diazepam (+ control) failed to produce an anxiolytic-like effect in R217A knockins. Data suggests 129S6-parent strain's genotype may be responsible for pharmacological profile of diazepam | 3.2 | fully responsive | –
NCC1(CC(=O)O)CCCCC1 [gabapentin, 1-(aminomethyl)cyclohexaneacetic acid] | – | – | – | – | – | – | – | – | reduced, or greatly abolished
O=C1NC(=O)C(c2ccccc2)(c2ccccc2)N1 [phenytoin] | – | – | – | – | – | – | – | fully responsive | –

— patent publication US20050044581A1, “Animals and cells containing a mutated alpha2/omega1 gene” (priority 2003, published 2005)
